In US20060276498A1 (Wyeth, priority 2005, published 2006):

Molecular target: T1, human Cot/Tpl2 kinase (Homo sapiens, UniProt P41279)
T1 construct: human Cot/Tpl2 kinase construct encoding residues 30-398; 6His (N); made in house; host or cells: Sf9 insect cells (baculovirus system, BD Biosciences)
Experiment: Tpl2/Cot kinase assay, GST-MEK1 phosphorylation detected by ELISA (DELFIA Eu)
Assay type: biochemical
Settings: Table 1; 0.4 nM Tpl2, 35 nM GST-MEK1, 50 uM ATP, 1 h at 30° C.
Method: Sf9 cells expressing the kinase were lysed in 50 mM NaPhosphate pH=8; 300 mM NaCl; 5 mM imidazole; 0.1 mM EGTA; 25 mM beta-glycerophosphate; 1% TX-100, 1% glycerol; 6 mM beta-mercaptoethanol and protease inhibitors. The lysate was clarified by centrifugation and was loaded onto a Ni-Sepharose column. The column was washed with 50 mM NaPhosphate pH=8; 300 mM NaCl; 15 mM imidazole; 1% glycerol; and 6 mM beta-mercaptoethanol. His-Tpl2 was eluted with 50 mM NaPhosphate pH=8; 300 mM NaCl; 250 mM imidazole; 1% glycerol; and 6 mM beta-mercaptoethanol. The eluted protein was further purified by size exclusion chromatography. Fractions corresponding to monomeric Tpl2 were then used in the assay.
Tpl2/Cot activity was directly assayed using GST-MEK1 as a substrate. GST-MEK1 phosphorylation on serine residues 217 and 221 was detected by ELISA. 0.4 nM Tpl2 was incubated with 35 nM GST-MEK1 in a kinase reaction buffer containing 20 mM MOPS pH=7.2; 50 uM ATP; 20 mM MgCl2; 1 mM DTT; 25 mM β-glycerophosphate; 5 mM EGTA; and 1 mM sodium orthovanadate for 1 h at 30° C. The compounds of the inventions solubilized in 100% DMSO were pre-diluted in assay buffer so that the final concentration of DMSO in the reaction was 1%. The kinase reaction was carried out in 100 ul volume on 96 well plates. The kinase reaction was then stopped with the addition of 100 mM EDTA. […] After a 1 hour incubation at room temperature, the detection plate was washed 4 times with TBST (TBS+0.05% Tween 20) and then incubated for another hour at room temperature with anti phospho-MEK1 antibody (Cell Signaling) 1:1000 in 10 mM MOPS 7.5; 150 mM NaCl; 0.05% Tween 20; 0.1% Gelatin; 0.02% NaN3; and 1% BSA. The detection plate was washed again and incubated for 30 min with DELFIA Europium (Eu) labeled goat anti-rabbit IgG (Perkin-Elmer), 1:4000 in the same buffer used for the primary incubation. After a final wash, Eu detection solution was added to each well and the Eu signal was measured in a Wallac Victor^2 Multilabel Counter. IC50 calculations were preformed using the XLfit software package (IDBS, Guildford, UK).

T1 sequence (P41279 30-398): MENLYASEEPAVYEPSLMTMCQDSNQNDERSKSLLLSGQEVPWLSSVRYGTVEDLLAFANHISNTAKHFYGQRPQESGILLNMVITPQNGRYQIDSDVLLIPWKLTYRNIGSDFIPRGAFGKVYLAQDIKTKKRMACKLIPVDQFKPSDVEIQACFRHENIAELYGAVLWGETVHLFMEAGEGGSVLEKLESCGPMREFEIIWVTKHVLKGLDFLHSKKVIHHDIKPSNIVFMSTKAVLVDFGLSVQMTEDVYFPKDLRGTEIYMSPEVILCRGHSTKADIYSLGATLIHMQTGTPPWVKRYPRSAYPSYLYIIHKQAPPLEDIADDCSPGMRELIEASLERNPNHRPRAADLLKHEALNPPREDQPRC

| SMILES | IC50 |
| --- | --- |
| N#Cc1cnc2cnc(NCc3cccnc3)cc2c1Nc1ccc(F)c(Cl)c1 [Example 1, 4-(3-chloro-4-fluorophenylamino)-6-(pyridin-3-ylmethylamino)-1,7-naphthyridine-3-carbonitrile] | 50 nM |
| N#Cc1cnc2cnc(NCCN3CCOCC3)cc2c1Nc1cccc(Oc2ccccc2)c1 [Example 2, 6-(2-morpholinoethylamino)-4-(3-phenoxyphenylamino)-1,7-naphthyridine-3-carbonitrile] | 11600 nM |
| N#Cc1cnc2cnc(NCCN3CCOCC3)cc2c1Nc1ccc(Cc2ccccc2)cc1 [Example 7, 4-(4-benzylphenylamino)-6-(2-morpholinoethylamino)-1,7-naphthyridine-3-carbonitrile] | 8 nM |
| N#Cc1cnc2cnc(NCc3cccnc3)cc2c1Nc1ccc(F)cc1 [Example 9, 4-(4-fluorophenylamino)-6-(pyridin-3-ylmethylamino)-1,7-naphthyridine-3-carbonitrile] | 1700 nM |
| N#Cc1cnc2cnc(NCCN3CCOCC3)cc2c1Nc1ccc(Sc2ccccc2)cc1 [Example 11, 6-(2-morpholinoethylamino)-4-(4-(phenylthio)phenylamino)-1,7-naphthyridine-3-carbonitrile] | 6 nM |
| N#Cc1cnc2cnc(NCCN3CCOCC3)cc2c1Nc1ccc(F)c(F)c1 [Example 13, 4-(3,4-difluorophenylamino)-6-(2-morpholinoethylamino)-1,7-naphthryidine-3-carbonitrile] | 3600 nM |
| N#Cc1cnc2cnc(NCc3cccnc3)cc2c1Nc1cccc(Oc2ccccc2)c1 [Example 15, 4-(3-phenoxyphenylamino)-6-(pyridin-3-ylmethylamino)-1,7-naphthyridine-3-carbonitrile] | > 40000 nM |
| N#Cc1cnc2cnc(NCc3cccnc3)cc2c1Nc1ccc(Br)cc1 [Example 17, 4-(4-bromophenylamino)-6-(pyridin-3-ylmethylamino)-1,7-naphthyridine-3-carbonitrile] | > 10000 nM |
| N#Cc1cnc2cnc(NCc3cccnc3)cc2c1Nc1ccc(Nc2ccccc2)cc1 [Example 18, 4-(4-(phenylamino)phenylamino)-6-(pyridin-3-ylmethylamino)-1,7-naphthyridine-3-carbonitrile] | > 10000 nM |

Further lines, results first:

| IC50 | SMILES |
| --- | --- |
| 1160 nM | N#Cc1cnc2cnc(NCCN3CCOCC3)cc2c1Nc1cccc(Cl)c1 [Example 3, 4-(3-chlorophenylamino)-6-(2-morpholinoethylamino)-1,7-naphthyridine-3-carbonitrile] |
| 10700 nM | N#Cc1cnc2cnc(NCCN3CCOCC3)cc2c1Nc1ccc(F)cc1 [Example 4, 4-(4-fluorophenylamino)-6-(2-morpholinoethylamino)-1,7-naphthryidine-3-carbonitrile] |
| > 40000 nM | N#Cc1cnc2cnc(NCCN3CCOCC3)cc2c1Nc1ccc(Br)cc1 [Example 5, 4-(4-bromophenylamino)-6-(2-morpholinoethylamino)-1,7-naphthyridine-3-carbonitrile] |
| 7600 nM | N#Cc1cnc2cnc(NCCN3CCOCC3)cc2c1Nc1ccc(Nc2ccccc2)cc1 [Example 10, 6-(2-morpholinoethylamino)-4-(4-(phenylamino)phenylamino)-1,7-naphthyridine-3-carbonitrile] |
| 65 nM | N#Cc1cnc2cnc(NCc3cccnc3)cc2c1Nc1cccc(Cl)c1 [Example 12, 4-(3-chlorophenylamino)-6-(pyridin-3-ylmethylamino)-1,7-naphthyridine-3-carbonitrile] |
| 17 nM | N#Cc1cnc2cnc(NCc3cccnc3)cc2c1Nc1ccc(Cc2ccccc2)cc1 [Example 14, 4-(4-benzylphenylamino)-6-(pyridin-3-ylmethylamino)-1,7-naphthryidine-3-carbonitrile] |
| > 10000 nM | N#Cc1cnc2cnc(NCc3cccnc3)cc2c1Nc1ccc(Cl)cc1 [Example 16, 4-(4-chlorophenylamino)-6-(pyridin-3-ylmethylamino)-1,7-naphthyridine-3-carbonitrile] |
